Columns and labels:
Assay type in all cases: cell-based
Settings in all cases: compounds at 50 nM and 500 nM
IKZF1 = biological target: T1, IKZF1 (Homo sapiens, UniProt Q13422+Q96SW2); test: Western blot degradation of IKZF1 in hPBMCs (24 h)
T1 construct: The supernatant was aspirated as the extracted total cell protein; endogenous in cells; host or cells: human peripheral blood mononuclear cells (hPBMCs)
Summary of the method: (§1)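 Thawed human PBMCs, 1×10^6 cells/mL; cpd 50 nM or 500 nM, 24 h; RIPA lysis, BCA, SDS-PAGE, NC transfer, immunoblot. Readout: grayscale/internal control → % remaining; degradation = 1 − remaining.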

GSPT1 = biological target: T2, GSPT1 (Homo sapiens, UniProt P15170+Q96SW2); test: Western blot degradation of GSPT1 in hPBMCs (24 h)
T2 construct: The supernatant was aspirated as the extracted total cell protein; endogenous in cells; host or cells: human peripheral blood mononuclear cells (hPBMCs)
T2 sequence (P15170 whole entry): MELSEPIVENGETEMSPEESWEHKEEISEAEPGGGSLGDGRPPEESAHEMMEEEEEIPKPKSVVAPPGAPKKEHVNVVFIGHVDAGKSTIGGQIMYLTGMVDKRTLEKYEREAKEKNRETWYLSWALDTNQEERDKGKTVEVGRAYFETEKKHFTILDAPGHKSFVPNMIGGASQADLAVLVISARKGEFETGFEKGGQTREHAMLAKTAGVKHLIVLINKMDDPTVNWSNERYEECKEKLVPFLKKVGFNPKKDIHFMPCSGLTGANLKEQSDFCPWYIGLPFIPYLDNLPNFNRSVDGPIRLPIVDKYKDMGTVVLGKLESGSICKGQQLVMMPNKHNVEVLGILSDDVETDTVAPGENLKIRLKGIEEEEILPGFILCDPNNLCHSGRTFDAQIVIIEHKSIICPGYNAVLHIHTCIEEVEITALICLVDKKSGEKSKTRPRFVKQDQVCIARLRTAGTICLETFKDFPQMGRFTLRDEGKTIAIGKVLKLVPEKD
T2 sequence (Q96SW2 whole entry): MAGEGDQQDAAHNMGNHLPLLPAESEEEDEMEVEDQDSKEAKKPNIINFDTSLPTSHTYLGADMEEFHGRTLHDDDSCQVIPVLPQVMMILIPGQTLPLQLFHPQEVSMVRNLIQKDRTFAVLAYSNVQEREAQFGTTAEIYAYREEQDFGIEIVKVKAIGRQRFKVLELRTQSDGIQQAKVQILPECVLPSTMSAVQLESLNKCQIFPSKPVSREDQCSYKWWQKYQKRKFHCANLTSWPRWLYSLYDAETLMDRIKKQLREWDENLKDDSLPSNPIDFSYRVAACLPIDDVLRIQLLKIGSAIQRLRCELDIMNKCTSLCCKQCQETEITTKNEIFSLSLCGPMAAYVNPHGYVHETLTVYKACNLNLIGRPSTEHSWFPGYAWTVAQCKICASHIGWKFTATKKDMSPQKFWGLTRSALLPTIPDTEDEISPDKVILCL
T2 sequence (Q16531 whole entry partner): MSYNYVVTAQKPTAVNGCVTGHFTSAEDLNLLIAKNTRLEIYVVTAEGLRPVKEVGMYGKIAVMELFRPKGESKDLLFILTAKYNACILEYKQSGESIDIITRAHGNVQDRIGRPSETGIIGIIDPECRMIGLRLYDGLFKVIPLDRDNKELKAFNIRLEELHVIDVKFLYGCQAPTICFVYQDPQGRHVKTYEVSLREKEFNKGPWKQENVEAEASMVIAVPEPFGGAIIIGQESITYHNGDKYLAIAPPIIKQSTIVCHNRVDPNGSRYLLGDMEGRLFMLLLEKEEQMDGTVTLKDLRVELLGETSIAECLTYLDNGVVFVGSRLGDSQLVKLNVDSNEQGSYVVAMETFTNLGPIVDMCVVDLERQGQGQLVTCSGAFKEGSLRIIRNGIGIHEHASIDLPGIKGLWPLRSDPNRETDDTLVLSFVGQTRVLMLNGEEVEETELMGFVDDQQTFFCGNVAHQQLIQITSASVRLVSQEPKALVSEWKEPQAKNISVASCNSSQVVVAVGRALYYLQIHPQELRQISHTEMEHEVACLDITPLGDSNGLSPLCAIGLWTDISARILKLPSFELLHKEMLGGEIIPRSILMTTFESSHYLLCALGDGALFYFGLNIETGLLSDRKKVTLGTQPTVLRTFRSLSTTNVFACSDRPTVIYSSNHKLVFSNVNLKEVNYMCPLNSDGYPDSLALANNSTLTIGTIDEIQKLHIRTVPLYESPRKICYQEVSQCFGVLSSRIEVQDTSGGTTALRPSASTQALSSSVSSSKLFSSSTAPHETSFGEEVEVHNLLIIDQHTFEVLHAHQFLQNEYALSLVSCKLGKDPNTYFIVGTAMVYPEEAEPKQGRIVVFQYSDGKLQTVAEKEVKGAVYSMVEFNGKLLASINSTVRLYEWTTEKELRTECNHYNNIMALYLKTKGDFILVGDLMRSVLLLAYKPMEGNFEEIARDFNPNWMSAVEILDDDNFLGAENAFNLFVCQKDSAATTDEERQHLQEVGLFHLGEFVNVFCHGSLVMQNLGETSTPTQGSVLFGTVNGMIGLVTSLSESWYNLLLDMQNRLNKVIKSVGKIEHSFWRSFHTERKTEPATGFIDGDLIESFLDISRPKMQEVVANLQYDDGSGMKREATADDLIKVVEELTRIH
Summary of the method: as §1

WEE1 = biological target: T3, WEE1 (Homo sapiens, UniProt P30291+Q96SW2); test: Western blot degradation of WEE1 in hPBMCs (24 h)
T3 construct: The supernatant was aspirated as the extracted total cell protein; endogenous in cells; host or cells: human peripheral blood mononuclear cells (hPBMCs)
Summary of the method: as §1

CK1α = biological target: T4, CK1α (Homo sapiens, UniProt P48729+Q96SW2); test: Western blot degradation of CK1α in hPBMCs (24 h)
T4 construct: The supernatant was aspirated as the extracted total cell protein; endogenous in cells; host or cells: human peripheral blood mononuclear cells (hPBMCs)
T4 sequence (P48729 whole entry): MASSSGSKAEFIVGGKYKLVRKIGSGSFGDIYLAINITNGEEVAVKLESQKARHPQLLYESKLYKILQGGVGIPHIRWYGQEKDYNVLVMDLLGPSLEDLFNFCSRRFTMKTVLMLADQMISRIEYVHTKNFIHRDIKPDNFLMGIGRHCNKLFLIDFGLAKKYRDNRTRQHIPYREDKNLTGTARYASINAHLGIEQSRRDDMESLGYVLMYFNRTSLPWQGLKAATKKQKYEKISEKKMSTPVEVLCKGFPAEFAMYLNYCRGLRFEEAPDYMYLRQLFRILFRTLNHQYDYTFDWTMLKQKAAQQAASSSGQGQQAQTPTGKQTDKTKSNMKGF
T4 sequence (Q96SW2 whole entry): as the sequence (Q96SW2 whole entry) above
T4 sequence (Q16531 whole entry partner): as the sequence (Q16531 whole entry partner) above
Summary of the method: as §1

IKZF2 = biological target: T5, IKZF2 (Homo sapiens, UniProt Q96SW2+Q9UKS7); test: Western blot degradation of IKZF2 in hPBMCs (24 h)
T5 construct: The supernatant was aspirated as the extracted total cell protein; endogenous in cells; host or cells: human peripheral blood mononuclear cells (hPBMCs)
T5 sequence (Q9UKS7 whole entry): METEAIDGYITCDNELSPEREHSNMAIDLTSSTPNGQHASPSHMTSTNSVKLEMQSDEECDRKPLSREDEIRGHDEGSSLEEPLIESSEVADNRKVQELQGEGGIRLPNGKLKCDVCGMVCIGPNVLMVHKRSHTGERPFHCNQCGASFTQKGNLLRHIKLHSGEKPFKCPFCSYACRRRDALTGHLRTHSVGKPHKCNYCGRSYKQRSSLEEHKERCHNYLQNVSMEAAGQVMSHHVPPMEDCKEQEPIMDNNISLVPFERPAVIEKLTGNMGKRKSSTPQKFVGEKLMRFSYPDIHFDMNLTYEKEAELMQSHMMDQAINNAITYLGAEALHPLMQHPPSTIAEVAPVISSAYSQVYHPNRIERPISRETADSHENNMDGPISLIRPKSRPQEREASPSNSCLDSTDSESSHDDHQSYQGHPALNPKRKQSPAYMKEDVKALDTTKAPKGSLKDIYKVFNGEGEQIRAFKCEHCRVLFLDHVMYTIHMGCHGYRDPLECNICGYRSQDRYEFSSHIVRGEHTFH
T5 sequence (Q96SW2 whole entry): as the sequence (Q96SW2 whole entry) above
T5 sequence (Q16531 whole entry partner): as the sequence (Q16531 whole entry partner) above
Summary of the method: as §1

IKZF3 = biological target: T6, IKZF3 (Homo sapiens, UniProt Q96SW2+Q9UKT9); test: Western blot degradation of IKZF3 in hPBMCs (24 h)
T6 construct: The supernatant was aspirated as the extracted total cell protein; endogenous in cells; host or cells: human peripheral blood mononuclear cells (hPBMCs)
T6 sequence (Q9UKT9 whole entry): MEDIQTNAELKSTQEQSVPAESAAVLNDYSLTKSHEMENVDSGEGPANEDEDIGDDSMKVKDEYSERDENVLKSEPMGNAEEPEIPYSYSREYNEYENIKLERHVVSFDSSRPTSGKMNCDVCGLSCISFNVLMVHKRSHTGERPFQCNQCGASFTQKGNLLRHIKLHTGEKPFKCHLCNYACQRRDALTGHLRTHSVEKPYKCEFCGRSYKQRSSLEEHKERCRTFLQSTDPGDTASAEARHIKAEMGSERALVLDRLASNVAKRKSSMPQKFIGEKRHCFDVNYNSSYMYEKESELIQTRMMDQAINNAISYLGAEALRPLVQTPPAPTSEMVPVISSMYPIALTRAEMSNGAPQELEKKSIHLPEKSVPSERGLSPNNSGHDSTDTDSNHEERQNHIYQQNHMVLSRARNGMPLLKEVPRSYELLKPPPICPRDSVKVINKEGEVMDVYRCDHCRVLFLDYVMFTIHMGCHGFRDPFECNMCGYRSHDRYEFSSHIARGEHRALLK
T6 sequence (Q96SW2 whole entry): as the sequence (Q96SW2 whole entry) above
T6 sequence (Q16531 whole entry partner): as the sequence (Q16531 whole entry partner) above
Summary of the method: as §1

T1 sequence (Q13422 whole entry): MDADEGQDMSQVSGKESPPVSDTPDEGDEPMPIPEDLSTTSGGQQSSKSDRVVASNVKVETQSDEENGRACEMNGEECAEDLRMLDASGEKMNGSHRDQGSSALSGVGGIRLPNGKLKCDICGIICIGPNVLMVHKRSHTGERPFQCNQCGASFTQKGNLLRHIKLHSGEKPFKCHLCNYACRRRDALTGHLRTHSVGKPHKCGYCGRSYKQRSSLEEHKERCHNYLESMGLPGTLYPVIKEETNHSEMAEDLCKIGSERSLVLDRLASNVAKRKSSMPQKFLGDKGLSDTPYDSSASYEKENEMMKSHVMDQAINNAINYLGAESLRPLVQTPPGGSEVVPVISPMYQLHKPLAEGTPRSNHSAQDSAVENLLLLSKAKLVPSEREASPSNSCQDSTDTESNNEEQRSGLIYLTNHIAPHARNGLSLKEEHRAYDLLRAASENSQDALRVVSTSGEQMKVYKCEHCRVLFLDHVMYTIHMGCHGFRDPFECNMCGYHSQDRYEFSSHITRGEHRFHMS
T1 sequence (Q96SW2 whole entry): as the sequence (Q96SW2 whole entry) above
T1 sequence (Q16531 whole entry partner): as the sequence (Q16531 whole entry partner) above

Structure (SMILES)	IKZF1 substrate protein remaining % (IKZF1)	GSPT1 substrate protein remaining % (GSPT1)	WEE1 substrate protein remaining % (WEE1)	CK1α substrate protein remaining % (CK1α)	IKZF2 substrate protein remaining % (IKZF2)	IKZF3 substrate protein remaining % (IKZF3)
O=C1CCN(N2Cc3cc(CN4CCN(c5ccnc(Cl)c5F)CC4)ccc3C2=O)C(=O)N1 [GT-07069, 1-(5-((4-(2-chloro-3-fluoropyridin-4-yl)piperazin-1-yl)methyl)-1-oxoisoindolin-2-yl)dihydropyrimidine-2,4(1H,3H)-dione]	B (80%< substrate protein remaining % ≤100%)	B (80%< substrate protein remaining % ≤100%)	A (0% ≤ substrate protein remaining % ≤80%)	B (80%< substrate protein remaining % ≤100%)	B (80%< substrate protein remaining % ≤100%)	B (80%< substrate protein remaining % ≤100%)
O=C1CCN(N2C(=O)c3ccc(CN4CCN(c5ccncc5)CC4)cc3C2=O)C(=O)N1 [GT-07073, 2-(2,4-dioxotetrahydropyrimidin-1(2H)-yl)-5-((4-(pyridin-4-yl)piperazin-1-yl)methyl)isoindoline-1,3-dione]	B (80%< substrate protein remaining % ≤100%)	B (80%< substrate protein remaining % ≤100%)	A (0% ≤ substrate protein remaining % ≤80%)	B (80%< substrate protein remaining % ≤100%)	B (80%< substrate protein remaining % ≤100%)	B (80%< substrate protein remaining % ≤100%)
O=C1CCN(N2Cc3cc(CN4CCN(c5cnccn5)CC4)ccc3C2=O)C(=O)N1 [GT-07160, 1-(1-oxo-5-((4-(pyrazin-2-yl)piperazin-1-yl)methyl)isoindolin-2-yl)dihydropyrimidine-2,4(1H,3H)-dione]	B (80%< substrate protein remaining % ≤100%)	A (0% ≤ substrate protein remaining % ≤80%)	B (80%< substrate protein remaining % ≤100%)	A (0% ≤ substrate protein remaining % ≤80%)	A (0% ≤ substrate protein remaining % ≤80%)	B (80%< substrate protein remaining % ≤100%)
Cc1cc(N2CCN(Cc3ccc4c(c3)C(=O)N(N3CCC(=O)NC3=O)C4=O)CC2)ccn1 [GT-07161, 2-(2,4-dioxotetrahydropyrimidin-1(2H)-yl)-5-((4-(2-methylpyridin-4-yl)piperazin-1-yl)methyl)isoindoline-1,3-dione]	B (80%< substrate protein remaining % ≤100%)	A (0% ≤ substrate protein remaining % ≤80%)	B (80%< substrate protein remaining % ≤100%)	B (80%< substrate protein remaining % ≤100%)	A (0% ≤ substrate protein remaining % ≤80%)	B (80%< substrate protein remaining % ≤100%)
O=C1CCN(N2C(=O)c3ccc(CN4CCN(c5nccc(F)c5F)CC4)cc3C2=O)C(=O)N1 [GT-07162, 5-((4-(3,4-difluoropyridin-2-yl)piperazin-1-yl)methyl)-2-(2,4-dioxotetrahydropyrimidin-1(2H)-yl)isoindoline-1,3-dione]	B (80%< substrate protein remaining % ≤100%)	A (0% ≤ substrate protein remaining % ≤80%)	B (80%< substrate protein remaining % ≤100%)	A (0% ≤ substrate protein remaining % ≤80%)	A (0% ≤ substrate protein remaining % ≤80%)	B (80%< substrate protein remaining % ≤100%)
O=C1CCN(N2C(=O)c3ccc(CN4CCN(c5ccncc5Br)CC4)cc3C2=O)C(=O)N1 [GT-07163, 5-((4-(3-bromopyridin-4-yl)piperazin-1-yl)methyl)-2-(2,4-dioxotetrahydropyrimidin-1(2H)-yl)isoindoline-1,3-dione]	B (80%< substrate protein remaining % ≤100%)	A (0% ≤ substrate protein remaining % ≤80%)	B (80%< substrate protein remaining % ≤100%)	B (80%< substrate protein remaining % ≤100%)	A (0% ≤ substrate protein remaining % ≤80%)	B (80%< substrate protein remaining % ≤100%)
O=C1CCN(N2C(=O)c3ccc(CN4CCN(c5ccncc5F)CC4)cc3C2=O)C(=O)N1 [GT-07164, 2-(2,4-dioxotetrahydropyrimidin-1(2H)-yl)-5-((4-(3-fluoropyridin-4-yl)piperazin-1-yl)methyl)isoindoline-1,3-dione]	B (80%< substrate protein remaining % ≤100%)	A (0% ≤ substrate protein remaining % ≤80%)	B (80%< substrate protein remaining % ≤100%)	B (80%< substrate protein remaining % ≤100%)	A (0% ≤ substrate protein remaining % ≤80%)	B (80%< substrate protein remaining % ≤100%)
O=C1CCN(N2C(=O)c3ccc(CN4CCN(c5ccncc5Cl)CC4)cc3C2=O)C(=O)N1 [GT-07165, 5-((4-(3-chloropyridin-4-yl)piperazin-1-yl)methyl)-2-(2,4-dioxotetrahydropyrimidin-1(2H)-yl)isoindoline-1,3-dione]	B (80%< substrate protein remaining % ≤100%)	A (0% ≤ substrate protein remaining % ≤80%)	B (80%< substrate protein remaining % ≤100%)	B (80%< substrate protein remaining % ≤100%)	A (0% ≤ substrate protein remaining % ≤80%)	B (80%< substrate protein remaining % ≤100%)
O=C1CCN(N2C(=O)c3ccc(CN4CCN(c5ccnc(Cl)c5F)CC4)cc3C2=O)C(=O)N1 [GT-07166, 5-((4-(2-chloro-3-fluoropyridin-4-yl)piperazin-1-yl)methyl)-2-(2,4-dioxotetrahydropyrimidin-1(2H)-yl)isoindoline-1,3-dione]	B (80%< substrate protein remaining % ≤100%)	A (0% ≤ substrate protein remaining % ≤80%)	B (80%< substrate protein remaining % ≤100%)	B (80%< substrate protein remaining % ≤100%)	A (0% ≤ substrate protein remaining % ≤80%)	B (80%< substrate protein remaining % ≤100%)
O=C1CCN(N2C(=O)c3ccc(CN4CCN(c5ccnc(Br)c5F)CC4)cc3C2=O)C(=O)N1 [GT-07167, 5-((4-(2-bromo-3-fluoropyridin-4-yl)piperazin-1-yl)methyl)-2-(2,4-dioxotetrahydropyrimidin-1(2H)-yl)isoindoline-1,3-dione]	B (80%< substrate protein remaining % ≤100%)	A (0% ≤ substrate protein remaining % ≤80%)	B (80%< substrate protein remaining % ≤100%)	B (80%< substrate protein remaining % ≤100%)	A (0% ≤ substrate protein remaining % ≤80%)	B (80%< substrate protein remaining % ≤100%)
O=C1CCN(N2C(=O)c3ccc(CN4CCN(c5ccnc(Cl)c5Br)CC4)cc3C2=O)C(=O)N1 [GT-07168, 5-((4-(3-bromo-2-chloropyridin-4-yl)piperazin-1-yl)methyl)-2-(2,4-dioxotetrahydropyrimidin-1(2H)-yl)isoindoline-1,3-dione]	B (80%< substrate protein remaining % ≤100%)	A (0% ≤ substrate protein remaining % ≤80%)	B (80%< substrate protein remaining % ≤100%)	B (80%< substrate protein remaining % ≤100%)	A (0% ≤ substrate protein remaining % ≤80%)	B (80%< substrate protein remaining % ≤100%)
O=C1CCN(N2Cc3cc(CN4CCN(c5ccnc(Cl)c5Cl)CC4)ccc3C2=O)C(=O)N1 [GT-07169, 1-(5-((4-(2,3-dichloropyridin-4-yl)piperazin-1-yl)methyl)-1-oxoisoindolin-2-yl)dihydropyrimidine-2,4(1H,3H)-dione]	B (80%< substrate protein remaining % ≤100%)	B (80%< substrate protein remaining % ≤100%)	A (0% ≤ substrate protein remaining % ≤80%)	B (80%< substrate protein remaining % ≤100%)	B (80%< substrate protein remaining % ≤100%)	B (80%< substrate protein remaining % ≤100%)
O=C1CCN(N2Cc3cc(CN4CCN(c5c(Cl)cncc5Br)CC4)ccc3C2=O)C(=O)N1 [GT-07170, 1-(5-((4-(3-bromo-5-chloropyridin-4-yl)piperazin-1-yl)methyl)-1-oxoisoindolin-2-yl)dihydropyrimidine-2,4(1H,3H)-dione]	A (0% ≤ substrate protein remaining % ≤80%)	B (80%< substrate protein remaining % ≤100%)	A (0% ≤ substrate protein remaining % ≤80%)	B (80%< substrate protein remaining % ≤100%)	B (80%< substrate protein remaining % ≤100%)	B (80%< substrate protein remaining % ≤100%)

Reference: patent publication US20260356819A1, “OXOISOINDOLINYL-SUBSTITUTED […] DERIVATIVE AND USE THEREOF” (GLUETACS THERAPEUTICS (SHANGHAI) CO., LTD., priority 2023, published 2026)
